In PMC3945162 (Psychopharmacology, 2013):
Where “and” joins values, the source holds several entries; their conditions need not be identical. Identical values can stand only once. Like-named read-outs stand apart in the source and are kept apart here.

Key:
human 5-HT1A receptor [1] = biological target: T1, human 5-HT1A receptor (Homo sapiens, UniProt P08908); assay: [3H]8-OH-DPAT binding, HEK-5-HT1A
T1 sequence (P08908 1-422): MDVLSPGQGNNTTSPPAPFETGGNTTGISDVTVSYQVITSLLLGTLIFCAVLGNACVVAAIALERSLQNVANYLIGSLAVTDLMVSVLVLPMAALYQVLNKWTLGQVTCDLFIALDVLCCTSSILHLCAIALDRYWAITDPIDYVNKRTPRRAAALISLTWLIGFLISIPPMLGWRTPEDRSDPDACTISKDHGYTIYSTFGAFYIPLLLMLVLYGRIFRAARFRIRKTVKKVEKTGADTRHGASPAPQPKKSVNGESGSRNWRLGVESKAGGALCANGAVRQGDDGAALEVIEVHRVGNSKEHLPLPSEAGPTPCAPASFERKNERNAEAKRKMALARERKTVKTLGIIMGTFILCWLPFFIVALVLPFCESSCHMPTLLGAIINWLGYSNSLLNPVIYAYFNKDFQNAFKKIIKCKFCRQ

hNET [2] = biological target: T2, hNET (Homo sapiens, UniProt P23975); assay: cell-based
T2 sequence (P23975 whole entry): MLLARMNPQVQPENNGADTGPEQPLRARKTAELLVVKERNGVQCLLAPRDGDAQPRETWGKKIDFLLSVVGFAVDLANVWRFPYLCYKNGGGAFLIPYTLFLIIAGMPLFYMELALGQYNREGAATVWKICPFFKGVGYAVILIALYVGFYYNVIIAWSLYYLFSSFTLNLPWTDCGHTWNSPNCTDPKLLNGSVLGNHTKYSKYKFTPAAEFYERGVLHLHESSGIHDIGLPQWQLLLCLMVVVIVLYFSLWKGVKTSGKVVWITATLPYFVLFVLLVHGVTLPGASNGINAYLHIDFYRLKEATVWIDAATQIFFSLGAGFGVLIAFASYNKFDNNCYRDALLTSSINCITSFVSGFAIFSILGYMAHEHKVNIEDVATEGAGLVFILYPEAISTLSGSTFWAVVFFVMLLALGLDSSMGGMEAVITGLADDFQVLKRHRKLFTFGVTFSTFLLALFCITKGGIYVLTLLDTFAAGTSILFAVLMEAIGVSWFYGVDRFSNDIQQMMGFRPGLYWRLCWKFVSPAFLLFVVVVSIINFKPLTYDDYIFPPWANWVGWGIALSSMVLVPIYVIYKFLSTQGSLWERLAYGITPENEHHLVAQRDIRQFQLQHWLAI

Male Swiss–Webster mice = assay: Locomotor activity; type: in vivo, mouse
[3] = tested on: rats trained to discriminate DOM (0.5 mg/kg) from saline; type: in vivo, rat
human 5-HT2A receptor [4] = biological target: T3, human 5-HT2A receptor (Homo sapiens, UniProt P28223); assay: [125I]DOI binding, HEK-5-HT2A cells
T3 sequence (P28223 whole entry): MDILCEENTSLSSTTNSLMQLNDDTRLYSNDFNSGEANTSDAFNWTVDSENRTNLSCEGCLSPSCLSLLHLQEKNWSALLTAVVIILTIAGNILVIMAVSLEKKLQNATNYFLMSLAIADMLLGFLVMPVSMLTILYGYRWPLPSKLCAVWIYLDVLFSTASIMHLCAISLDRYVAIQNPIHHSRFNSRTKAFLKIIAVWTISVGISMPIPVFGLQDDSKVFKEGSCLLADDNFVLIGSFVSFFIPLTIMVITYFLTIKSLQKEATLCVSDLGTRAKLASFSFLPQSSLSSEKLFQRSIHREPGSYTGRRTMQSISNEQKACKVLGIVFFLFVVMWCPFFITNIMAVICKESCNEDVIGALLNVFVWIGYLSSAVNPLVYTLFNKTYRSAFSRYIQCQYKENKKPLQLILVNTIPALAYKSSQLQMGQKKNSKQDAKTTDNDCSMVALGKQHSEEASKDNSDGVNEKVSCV

hSERT [5] = biological target: T4, hSERT (Homo sapiens, UniProt P31645); assay: [3H]Serotonin uptake, HEK-hSERT cells; type: cell-based
T4 sequence (P31645 whole entry): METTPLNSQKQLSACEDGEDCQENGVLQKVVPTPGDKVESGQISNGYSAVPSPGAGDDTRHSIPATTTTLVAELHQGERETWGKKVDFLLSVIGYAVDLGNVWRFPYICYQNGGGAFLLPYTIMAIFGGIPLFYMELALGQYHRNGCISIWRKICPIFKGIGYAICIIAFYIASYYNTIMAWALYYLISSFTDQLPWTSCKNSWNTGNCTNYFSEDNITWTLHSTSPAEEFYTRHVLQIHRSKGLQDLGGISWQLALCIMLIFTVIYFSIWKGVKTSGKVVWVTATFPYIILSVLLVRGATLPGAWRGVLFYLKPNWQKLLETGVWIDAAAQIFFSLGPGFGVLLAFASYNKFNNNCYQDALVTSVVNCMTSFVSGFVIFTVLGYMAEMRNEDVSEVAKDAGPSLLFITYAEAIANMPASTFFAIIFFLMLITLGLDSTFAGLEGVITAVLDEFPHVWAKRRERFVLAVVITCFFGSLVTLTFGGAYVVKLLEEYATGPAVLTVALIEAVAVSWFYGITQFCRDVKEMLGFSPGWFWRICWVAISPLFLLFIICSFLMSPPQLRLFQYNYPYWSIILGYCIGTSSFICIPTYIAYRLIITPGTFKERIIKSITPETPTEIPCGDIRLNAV

Male Sprague-Dawley rats = assay: Adverse effects observed during drug discrimination test sessions; type: in vivo, rat
[6] = tested on: rats trained to discriminate LSD (0.1 mg/kg) from saline; type: in vivo, rat; conditions: LSD-trained rats; for Maximum %DAR (drug-appropriate responding): i.p., at dose of maximum DAR
hSERT [7] = biological target: T4, hSERT; assay: [125I]RTI-55 binding, HEK-hSERT cells
human 5-HT2A receptor [8] = biological target: T3, human 5-HT2A receptor; assay: IP-1 formation, HEK-5-HT2A cells; type: cell-based; conditions: for Emax: read-out: 5-HT2A Function IP-1 formation % maximal effect
hDAT [9] = biological target: T5, hDAT (Homo sapiens, UniProt Q01959); assay: [125I]RTI-55 binding, HEK-hDAT cells
T5 sequence (Q01959 whole entry): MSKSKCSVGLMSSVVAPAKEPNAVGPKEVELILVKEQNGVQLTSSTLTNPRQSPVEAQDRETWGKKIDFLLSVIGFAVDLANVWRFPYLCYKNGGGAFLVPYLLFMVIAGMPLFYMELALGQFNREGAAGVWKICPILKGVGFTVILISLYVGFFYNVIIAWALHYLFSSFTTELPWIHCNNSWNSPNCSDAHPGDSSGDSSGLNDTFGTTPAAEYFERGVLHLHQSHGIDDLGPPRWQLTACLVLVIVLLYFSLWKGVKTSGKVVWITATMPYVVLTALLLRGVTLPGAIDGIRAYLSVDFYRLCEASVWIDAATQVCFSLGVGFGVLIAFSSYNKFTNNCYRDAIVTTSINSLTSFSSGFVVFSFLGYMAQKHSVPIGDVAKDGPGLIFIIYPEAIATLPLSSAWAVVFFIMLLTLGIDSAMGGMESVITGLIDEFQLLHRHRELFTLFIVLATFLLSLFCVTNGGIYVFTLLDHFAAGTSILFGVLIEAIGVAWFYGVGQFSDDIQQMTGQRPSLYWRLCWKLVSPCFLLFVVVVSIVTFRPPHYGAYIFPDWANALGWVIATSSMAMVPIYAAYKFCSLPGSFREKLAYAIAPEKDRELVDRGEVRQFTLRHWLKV

[10] = tested on: rats trained to discriminate MDMA (1.5 mg/kg) from saline; type: in vivo, rat; conditions: MDMA-trained rats
human 5-HT1A receptor [11] = biological target: T1, human 5-HT1A receptor; assay: [35S]GTPγS binding functional assay, HEK-5-HT1A; type: biochemical; conditions: for Emax: read-out: 5-HT1A Function [35S]GTPγS Binding % maximal effect
hSERT [12] = biological target: T4, hSERT; assay: [3H]Serotonin release, HEK-hSERT cells; type: cell-based
hDAT [13] = biological target: T5, hDAT; assay: [3H]Dopamine uptake, HEK-hDAT cells; type: cell-based
[14] = tested on: rats trained to discriminate METH (1 mg/kg) from saline; type: in vivo, rat; conditions: METH-trained rats
hNET [15] = biological target: T2, hNET; assay: cell-based; remark: listed apart in the source
hNET [16] = biological target: T2, hNET; assay: biochemical; type: binding
hDAT [17] = biological target: T5, hDAT; assay: [3H]Dopamine release, HEK-hDAT cells; type: cell-based
human 5-HT2C receptor [18] = biological target: T6, human 5-HT2C receptor (Homo sapiens, UniProt P28335); assay: cell-based; conditions: for Emax: read-out: 5-HT2C Function IP-formation % maximal effect
T6 sequence (P28335 33-458): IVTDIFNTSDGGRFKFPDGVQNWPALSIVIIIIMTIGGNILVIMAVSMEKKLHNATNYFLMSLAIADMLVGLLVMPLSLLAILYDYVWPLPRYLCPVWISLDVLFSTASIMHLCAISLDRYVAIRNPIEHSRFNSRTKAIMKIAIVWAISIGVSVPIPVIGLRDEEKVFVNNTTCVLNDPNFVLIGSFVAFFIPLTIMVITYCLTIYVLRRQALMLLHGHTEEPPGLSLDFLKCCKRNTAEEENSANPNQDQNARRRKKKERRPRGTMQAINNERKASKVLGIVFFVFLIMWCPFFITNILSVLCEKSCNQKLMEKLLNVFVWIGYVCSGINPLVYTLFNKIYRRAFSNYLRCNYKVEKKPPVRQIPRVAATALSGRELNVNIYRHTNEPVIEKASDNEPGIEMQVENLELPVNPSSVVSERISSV

human 5-HT2C receptor [19] = biological target: T6, human 5-HT2C receptor; assay: biochemical; type: binding
[20] = tested on: rats trained to discriminate DMT (5 mg/kg) from saline; type: in vivo, rat; conditions: DMT-trained rats
human 5-HT2A receptor [21] = biological target: T3, human 5-HT2A receptor; assay: [3H]AA release from HEK-5-HT2A cells; type: cell-based
5-HT2A = conditions: ref McLean et al. 2006; cited from earlier work
hNET [22] = biological target: T2, hNET; conditions: read-out: [3H]NE release EC50; HEK-hNET cells; ref Gatch et al., 2011; cited from earlier work
hDAT [23] = biological target: T5, hDAT; conditions: read-out: [3H]Dopamine release EC50; HEK-hDAT cells; ref Gatch et al., 2011; cited from earlier work
hSERT [24] = biological target: T4, hSERT; conditions: read-out: [3H]Serotonin release EC50; HEK-hSERT cells; ref Gatch et al., 2011; cited from earlier work
[25] = i.p., 15 min pretreatment, at dose of maximum DAR
[26] = 10 mg/kg, METH-trained rats, 15 min

COc1cc(CCN)c(OC)cc1C [2C-D, 2,5-dimethoxy-4-methylphenethylamine]
Ki (human 5-HT1A receptor [1]): 1.63 ± 0.15 µM | IC50 (hNET [2]): > 9.2 µM | Lethality (mice) (Male Swiss–Webster mice; 100 mg/kg i.p., within 30 min): 8/8 | Doses producing stimulant effects on locomotor activity (Male Swiss–Webster mice; mice, i.p.): 3 mg/kg | Duration of depressant effects (Male Swiss–Webster mice; mice, i.p.): 20 to 40 min | Duration of stimulant effects (Male Swiss–Webster mice; mice, i.p.): 180 min | Onset of depressant effects (within, after injection) (Male Swiss–Webster mice; mice, i.p.): ≤ 10 min | Onset of stimulant effects (within, after injection) (Male Swiss–Webster mice; mice, i.p.): ≤ 50 min | Rate of responding at dose of maximum DAR ([3]; 15 min pretreatment): 0.383±0.038 resp/s | Rate of responding at dose of maximum DAR ([3]; 70 min pretreatment): 0.338±0.187 resp/s | Maximum %DAR (drug-appropriate responding) [3, 25]: 100±0 % | Ki (human 5-HT2A receptor [4]): 0.0239 ± 0.0039 µM | IC50 (hSERT [5]): > 8.4 µM | Rats that failed to complete the first fixed ratio (Male Sprague-Dawley rats; [26]): 4/6 | Reddening of the extremities (rats affected/tested) (Male Sprague-Dawley rats; [26]): 2/6 | Rats with salivation and failure to complete the first fixed ratio (Male Sprague-Dawley rats; 50 mg/kg, 70 min): Two of three | Rate of responding at dose of maximum DAR ([6]; 15 min pretreatment): 0.385±0.060 resp/s | Rate of responding at dose of maximum DAR ([6]; 70 min pretreatment): 0.379±0.054 resp/s | Maximum %DAR (drug-appropriate responding) ([6]; 15 min pretreatment): 83±17 % | Maximum %DAR (drug-appropriate responding) ([6]; 70 min pretreatment): 83±17 % | Ki (hSERT [7]): > 10 µM | EC50 (human 5-HT2A receptor [8]): 0.145 ± 0.039 µM | Emax (human 5-HT2A receptor [8]): 93 ± 6.7% | Ki (hDAT [9]): > 10 µM | Rate of responding at dose of maximum DAR ([10]; 15 min pretreatment): 0.402±0.073 resp/s | Rate of responding at dose of maximum DAR ([10]; 70 min pretreatment): 0.547±0.127 resp/s | Maximum %DAR (drug-appropriate responding) [10, 25]: 61% and 61±20 ^2% | EC50 (human 5-HT1A receptor [11]): > 10 µM | Emax (human 5-HT1A receptor [11]): < 25% | [3H]Serotonin release % PCA maximal effect (hSERT [12]): ND Minimal | IC50 (hDAT [13]): > 10 µM | Rate of responding at dose of maximum DAR ([14]; 15 min pretreatment): 0.190±0.086 resp/s | Rate of responding at dose of maximum DAR ([14]; 70 min pretreatment): 0.072±0.032 resp/s | Maximum %DAR (drug-appropriate responding) [14, 25]: 15±15 ^2% | [3H]NE release % METH maximal effect (hNET [15]): ND Minimal | Ki (hNET [16]): > 8.5 µM | [3H]Dopamine release % METH maximal effect (hDAT [17]; HEK-hDAT cells): ND Minimal | EC50 (human 5-HT2C receptor [18]): 0.0711 ± 0.008 µM | Emax (human 5-HT2C receptor [18]): 100 ± 14% | Ki (human 5-HT2C receptor [19]): 0.0127 ± 0.0013 µM | Rate of responding at dose of maximum DAR ([20]; 15 min pretreatment): 0.154±0.070 resp/s | Rate of responding at dose of maximum DAR ([20]; 70 min pretreatment): 0.332±0.067 resp/s | Maximum %DAR (drug-appropriate responding) ([20]; i.p., 70 min pretreatment, at dose of maximum DAR): 83±17 % | EC50 (human 5-HT2A receptor [21]): 0.153 ± 0.028 µM | Emax (human 5-HT2A receptor [21]; read-out: 5-HT2A Function [3H]AA release % maximal effect): 81.1 ± 9.7%

COc1cc(Br)c(OC)c2c1[C@H](CN)C2 [((R)-4-bromo-3,6-dimethoxybenzocyclobuten-1-yl)methyl-amine)]
Fold more potent at stimulating inositol phosphate turnover than AA release (5-HT2A): 65 fold

CN[C@@H](C)Cc1ccccc1 [METH, methamphetamine, reference compound]
Ki (human 5-HT1A receptor [1]): 9.7 ± 1.8 µM | IC50 (hNET [2]): 0.023 ± 0.0055 µM | Ki (human 5-HT2A receptor [4]): 41.9 ± 9.6 µM | EC50 (hNET [22]): 0.067 ± 0.018 µM | Ki (hSERT [7]): 188 ± 14 µM | EC50 (human 5-HT2A receptor [8]): > 1000 µM | Emax (human 5-HT2A receptor [8]): < 3% | Ki (hDAT [9]): 4.75 ± 0.53 µM | EC50 (human 5-HT1A receptor [11]): 23.6 ± 8.1 µM | Emax (human 5-HT1A receptor [11]): 68 ± 11% | IC50 (hDAT [13]): 0.056 ± 0.015 µM | Emax (hNET [15]; read-out: [3H]NE release % METH maximal effect): 100% | Ki (hNET [16]): 1.48 ± 0.13 µM | EC50 (hDAT [23]): 0.97 ± 0.25 µM | EC50 (hSERT [24]): 27.8 ± 7.7 µM | Emax (hDAT [17]; read-out: [3H]Dopamine release % METH maximal effect): 100% | EC50 (human 5-HT2C receptor [18]): 74 ± 16 µM | Emax (human 5-HT2C receptor [18]): 52 ± 10% | Ki (human 5-HT2C receptor [19]; read-out: 5-HT2C [125I]DOI binding Ki ± sem): 10.1 ± 3.2 µM
